One data set addresses FXa (Homo sapiens, UniProt P00742). The data set can be described thus: Factor Xa inhibition (FXa-IC50). In kind it is biochemical. An excerpt:
The inhibition of factor Xa by the compounds according to the invention and the measurement of the anticoagulant and antithrombotic activity can be determined by conventional in-vitro or in-vivo methods. A suitable method is described, for example, by J. Hauptmann et al. in Thrombosis and Haemostasis 1990, 63, 220-223.
The inhibition of factor Xa can be measured, for example, by the method of T. Hara et al. in Thromb. Haemostas. 1994, 71, 314-319.

The target in a further data set is TF/FVIIa (Homo sapiens, UniProt P08709). Kind of data set: TF/factor VIIa inhibition (TF/FVIIa-IC50). It counts as biochemical. An excerpt:
The inhibition of factor VIIa by the compounds according to the invention and the measurement of the anticoagulant and antithrombotic activity can be determined by conventional in-vitro or in-vivo methods. A conventional method for the measurement of the inhibition of factor VIIa is described, for example, by H. F. Ronning et al. in Thrombosis Research 1996, 84, 73-81.

The results in this text go back to patent US20040171658A1, “Carbohydrate derivatives” (priority 2001, published 2004).

Structures can show the parent of a compound that is named as a salt.

Chain of TF/FVIIa (P08709 213-466 limits assumed): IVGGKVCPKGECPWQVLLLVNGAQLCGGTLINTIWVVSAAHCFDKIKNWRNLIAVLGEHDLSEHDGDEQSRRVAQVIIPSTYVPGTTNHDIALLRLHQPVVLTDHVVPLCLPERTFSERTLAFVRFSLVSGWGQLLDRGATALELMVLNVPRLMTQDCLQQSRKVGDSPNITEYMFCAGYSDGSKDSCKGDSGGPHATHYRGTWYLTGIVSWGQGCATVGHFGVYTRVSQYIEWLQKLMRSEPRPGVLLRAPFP
Chain of TF/FVIIa (P08709 61-212 partner limits assumed): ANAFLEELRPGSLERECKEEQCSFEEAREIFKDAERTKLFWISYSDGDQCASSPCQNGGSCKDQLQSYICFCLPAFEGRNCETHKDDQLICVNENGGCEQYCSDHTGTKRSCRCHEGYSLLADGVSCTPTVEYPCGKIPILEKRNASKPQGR
Chain of TF/FVIIa (P13726 33-295 partner): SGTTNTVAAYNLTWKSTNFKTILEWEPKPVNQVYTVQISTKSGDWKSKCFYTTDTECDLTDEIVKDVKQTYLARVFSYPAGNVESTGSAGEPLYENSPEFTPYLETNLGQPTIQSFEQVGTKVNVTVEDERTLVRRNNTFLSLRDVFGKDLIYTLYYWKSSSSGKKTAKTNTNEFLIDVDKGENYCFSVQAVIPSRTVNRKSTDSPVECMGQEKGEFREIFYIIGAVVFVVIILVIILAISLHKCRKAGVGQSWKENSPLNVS
Chain of FXa (P00742 235-488 limits assumed): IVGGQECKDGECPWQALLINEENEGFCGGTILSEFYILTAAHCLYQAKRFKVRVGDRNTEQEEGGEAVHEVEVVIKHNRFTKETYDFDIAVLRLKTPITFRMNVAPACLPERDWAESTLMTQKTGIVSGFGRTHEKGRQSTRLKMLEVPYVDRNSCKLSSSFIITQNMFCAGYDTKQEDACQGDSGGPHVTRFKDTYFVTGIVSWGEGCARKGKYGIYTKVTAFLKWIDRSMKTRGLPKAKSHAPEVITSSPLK
Chain of FXa (P00742 41-179 partner limits assumed): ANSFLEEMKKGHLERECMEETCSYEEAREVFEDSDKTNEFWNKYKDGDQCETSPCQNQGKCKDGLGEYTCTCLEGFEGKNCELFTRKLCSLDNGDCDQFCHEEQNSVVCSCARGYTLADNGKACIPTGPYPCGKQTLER

A word on the IC50: it is the midpoint of a concentration-inhibition curve. Read a high IC50 as weaker potency in that assay. Turning to `N=C(N)c1ccc(O[C@@H]2CO[C@H]3[C@@H]2OC[C@@H]3Oc2cccc(C(=N)N)c2)cc1` [Compound B1, 2-O-(3′-Amidinophenyl)-5-O-(4″-amidinophenyl)-1,4:3,6-dianhydro-D-sorbitol], the IC50 at FXa came out at 0.15 µM; on TF/FVIIa, 0.1 µM.
With `N=C(N)c1cccc(O[C@H]2CO[C@H]3[C@@H]2OC[C@H]3Oc2cccc(C(=N)N)c2)c1` [Compound B2, 2-O-(3′-amidinophenyl)-5-O-(3″-amidinophenyl)-1,4:3,6-dianhydro-D-sorbitol], the values for the IC50 at FXa and at TF/FVIIa were 3 µM and 6 µM, respectively.
The term melting point denotes the temperature, or range, at which the solid turns liquid. As for `N=C(N)c1cccc(CO[C@H]2CO[C@H]3[C@@H]2OC[C@H]3Oc2cccc(C(=N)N)c2)c1` (as salt: trifluoroacetate) [Compound A1, 2-O-(3′-Amidinobenzyl)-5-O-(3″-amidinophenyl)-1,4:3,6-dianhydro-D-sorbitol], the melting point was 155 °C.
Same read-out and setting: as for `N=C(N)c1ccc(O[C@@H]2CO[C@H]3[C@@H]2OC[C@@H]3Oc2cccc(C(=N)N)c2)cc1` (as salt: trifluoroacetate) [Compound B1, 2-O-(3′-Amidinophenyl)-5-O-(4″-amidinophenyl)-1,4:3,6-dianhydro-D-sorbitol], the figure is 225 °C (dec.).
On to `N=C(N)c1ccc(O[C@@H]2CO[C@H]3[C@@H]2OC[C@@H]3OCc2cccc(C(=N)N)c2)cc1` [Compound A2, 2-O-(3′-amidinobenzyl)-5-O-(4″-amidinophenyl)-1,4:3,6-dianhydro-D-sorbitol], for which the 50% inhibitory concentration (IC50) on FXa turned out to be 2.1 µM; at TF/FVIIa, 3.9 µM.
On FXa, `N=C(N)c1cccc(CO[C@H]2CO[C@H]3[C@@H]2OC[C@H]3Oc2cccc(C(=N)N)c2)c1` [Compound A1, 2-O-(3′-Amidinobenzyl)-5-O-(3″-amidinophenyl)-1,4:3,6-dianhydro-D-sorbitol] showed an IC50 of 7.9 µM.
